Read-outs that look alike come from different tables or passages of the source.
What was measured:
[1] = test system: Monochoria vaginalis; assay: Activity assay of compositions, post-emergence spray of stems and leaves; type: in vivo; details: 21 days
Protocol: The required active ingredient B was purchased from a reagent company or a technical material manufacturer or synthesized by a conventional method. […] The technical materials were all dissolved with acetone solvents and diluted with aqueous solution of 0.1% Tween® 80 emulsifier, which should be used immediately after dilution.
Weeds were cultivated by a pot culture method. […] Weed seeds with plump and uniform grains were selected, soaked in lukewarm water at 25° C. for 6 hours, and accelerated to germinate in a 28° C. biochemical incubator (in darkness). The weed seeds that had just germinated were evenly placed on the surface of the soil and then covered with 0.5-1 cm soil according to the sizes of seeds.
The weeds were cultured in a controllable sunlight greenhouse at 20-30° C., in natural light, and with relative humidity of 57%-72%. The soil was loam with an organic matter content of 1.63%, a pH value of 7.1, alkali-hydrolyzable nitrogen of 84.3 mg/kg, rapidly available phosphorus of 38.5 mg/kg, and rapidly available potassium of 82.1 mg/kg.
Each treatment was repeated 4 times for 3 pots. Each pot was seeded with 20 weed seeds.
The drugs were applied once in total in the experiment. When at the stage of 1.5-2 leaves, the weeds were thinned out to maintain 10 strains per pot. Thirty strains were kept in each treatment and then continued to be cultured until the Erigeron canadensis reached 10 cm tall and other weeds in their 3-4 leaf stage for further treatment.
The well-cultured test materials were evenly placed on a 0.5 m^2 platform and foliage-sprayed by the 3WP-2000-type walking spray tower at a dosage of […] and a spray pressure of 0.3 MPa. After all the drug solution was sprayed, the air valve was closed. And 30 seconds later, the door of the spray tower was opened, and the nutritional bowl was taken out. Next, the air valve was opened, and the spray tube was cleaned by spraying 50 ml of water. The test materials were transferred to and routinely cultured in a greenhouse after the treatment.
A method for investigating absolute numbers was employed. The whole seedlings of the survival weeds were cut along the soil surface with a blade, and the fresh weight of the weeds was weighed by an analytical balance. For dead weeds, the fresh weight thereof was considered zero.
The investigation was performed 21 days after the treatment for once in total.
The theoretical fresh weight inhibition rate of a mixed combination of each treatment was calculated by the Gowing method (E0=X+Y−X*Y/100). Then compared with the measured inhibition rate (E), the type of the combined action of the combination of the two on weeds was evaluated, which was a synergistic effect when E−E0>10; an antagonistic effect when E−E0<−10%; an additional effect when −10≤E−E0≤[…]. An optimal ratio was determined according to factors such as the actual control effects, characteristics of herbicides, balance of the formulation, etc. In the formula, X represents the fresh weight inhibition rate of the active ingredient A in a dosage of P; Y represents the fresh weight inhibition rate of the active ingredient B in a dosage of Q. The statistical results are shown in Table 5 below.

[2] = test system: Veronica; assay: Post-emergence test on weeds; type: in vivo; parameters: key: 0 = no effect, 9 = completely dead (levels by growth control rate); details: 30 g a.i./ha, 3 weeks after application
From the text: (§1) The criteria for activity levels of plant damage (i.e., growth control rate) are as follows: • Level 9: completely dead; • Level 8: growth control rate is greater than or equal to 90% and less than 100%; • Level 7: growth control rate is greater than or equal to 80% and less than 90%; • Level 6: growth control rate is greater than or equal to 70% and less than 80%; • Level 5: growth control rate is greater than or equal to 50% and less than 70%; • Level 4: growth control rate is greater than or equal to 30% and less than 50%; • Level 3: growth control rate is greater than or equal to 20% and less than 30%; • Level 2: growth control rate is greater than or equal to 10% and less than 20%; • Level 1: growth control rate is less than 10%; • Level 0: no effect.
(§2) The above growth control rates are fresh weight control rates.
(§3) Monocotyledonous and dicotyledonous weed seeds (Descurainia sophia, Capsella bursa-pastoris, Abutilon theophrasti, Galium spurium, Stellaria media, Lithospermum arvense, Rorippa indica, Alopecurus aequalis, Alopecurus japonicus, Eleusine indica, Beckmannia syzigachne, Sclerochloa dura, Erigeron canadensis, Phleum paniculatum, Veronica, Bromus japonicus, Aegilops tauschii, Phalaris arundinacea, Amaranthus retroflexus, Chenopodium, Commelina communis, Cichorium endivia, Convolvulus arvensis, Cirsium arvense, Solanum nigrum, Acalypha australis, Digitaria sanguinalis, Echinochloa crusgalli, Setaria viridis, Setaria pumila, Leptochloa chinensis, Monochoria vaginalis, Sagittaria trifolia, Schoenoplectiella juncoides, Cyperus rotundus, Cyperus iria, Cyperus difformis, Fimbristylis, Portulaca oleracea, Xanthium sibiricum, Ipomoea nil, Eschenbachia japonica, etc.) and major crop seeds (wheat, maize, paddy rice, soybean, cotton, oilseed rape, millet, sorghum, potato, sesame, castor plant, Chinese cabbage, radish, etc.) were placed in plastic pots filled with soil and then covered with 0.5-2 cm of soil to allow them to grow in a favorable greenhouse environment. Two weeks after sowing, the test plants were treated at the stage of 2-3 leaves. The test compounds of the present invention were individually dissolved with acetone, then added with Tween® 80, with 1.5 L/ha of methyl oleate emulsifiable concentrate as a synergist, diluted into solution of a certain concentration using a certain amount of water, and sprayed to plants using a spray tower. After drug application, the experimental results on weeds were collected after 3 weeks of cultivation in a greenhouse. The compounds were applied at 120, 60, 30, and 15 g a.i./ha in triplicate, and the results were averaged.

[3] = test system: paddy rice (japonica rice); details: in vivo
From the text: as §1, §2
In addition, after being loaded into the 1/1,000,000 ha pot, the paddy field soil was leveled to keep the water storage at a depth of 3-4 cm. The paddy rice (japonica rice) at 3-leaf stage was transplanted at a transplanting depth of 3 cm on the next day. The compounds of the present invention were treated in the same manner as above on the 5th day after the transplantation.
(§4) The effects were evaluated according to the above-mentioned criteria for activity levels.

[4] = test system: Monochoria vaginalis; assay: Control effect evaluation on weeds in paddy fields; type: in vivo; details: 75 g a.i./ha, paddy pot, 14th day after treatment, seeds resistant to pyrazosulfuron-ethyl
From the text: as §1, §2
(§5) After paddy field soil was loaded into a 1/1,000,000 ha pot, the seeds of Monochoria vaginalis, Pontederia korsakowii and Bidens tripartita were sowed and gently covered with soil, then left to stand in a greenhouse with water storage of 0.5-1 cm deep. The tuber of Sagittaria trifolia was planted on the next day or 2 days later. The water storage was kept at a depth of 3-4 cm thereafter. When the Monochoria vaginalis, Pontederia korsakowii and Bidens tripartita reached their 0.5-leaf stages and the Sagittaria trifolia reached the primary leaf stage, WP or SC aqueous dilutions of the compounds of the present invention formulated according to customary formulation methods were homogeneously dripped for treatment to the specified effective amount using pipettes.
as §4

[5] = test system: Pontederia korsakowii; assay: Control effect evaluation on weeds in paddy fields; type: in vivo; details: 75 g a.i./ha, paddy pot, 14th day after treatment, seeds resistant to pyrazosulfuron-ethyl
From the text: as §1, §2, §5, §4

[6] = test system: Bidens tripartita; assay: Control effect evaluation on weeds in paddy fields; type: in vivo; details: 75 g a.i./ha, paddy pot, 14th day after treatment, seeds resistant to pyrazosulfuron-ethyl
From the text: as §1, §2, §5, §4

[7] = test system: Chinese cabbage; assay: Post-emergence test, crop safety; details: in vivo, 3 weeks
From the text: as §1, §2, §3

[8] = test system: Maize; assay: Post-emergence test, crop safety; details: in vivo, 3 weeks
From the text: as §1, §2, §3

[9] = test system: Oilseed rape; assay: Post-emergence test, crop safety; details: in vivo, 3 weeks
From the text: as §1, §2, §3

[10] = test system: Paddy rice; assay: Post-emergence test, crop safety; details: in vivo, 3 weeks
From the text: as §1, §2, §3

[11] = test system: Radish; assay: Post-emergence test, crop safety; details: in vivo, 3 weeks
From the text: as §1, §2, §3

[12] = test system: Wheat; assay: Post-emergence test, crop safety; details: in vivo, 3 weeks
From the text: as §1, §2, §3

## CC(C)N1C(=O)c2ccccc2NS1(=O)=O [Bentazone, bentazone]
[1]; B 150 g a.i./ha
  Control effect of B applied alone in a corresponding dose (%): 45.2%
[1]; B 300 g a.i./ha
  Control effect of B applied alone in a corresponding dose (%): 60.5%

## COC(=O)c1nc(-c2ccc(C(F)(F)F)c(OC)c2Cl)nc(N)c1OC [Compound 2]
[2]
  activity level of plant damage (growth control rate), Veronica: 9
[3]
  activity level, Paddy rice: 0
[4]
  activity level, Monochoria vaginalis: 9
[5]
  activity level, Pontederia korsakowii: 9
[6]
  activity level, Bidens tripartita: 9

## COC(=O)c1nc(-c2ccc(C(F)(F)F)c(OC)c2F)nc(N)c1OC [Compound 3]
[7]
  activity level of plant damage (growth control rate), Chinese cabbage: 0
[8]
  activity level of plant damage (growth control rate), Maize: 0
[9]
  activity level of plant damage (growth control rate), Oilseed rape: 0
[10]
  activity level of plant damage (growth control rate), Paddy rice: 0
[11]
  activity level of plant damage (growth control rate), Radish: 0
[12]
  activity level of plant damage (growth control rate), Wheat: 0
[2]
  activity level of plant damage (growth control rate), Veronica: 9
[3]; japonica, paddy rice, 21 days
  activity level, Paddy rice: 0
[4]
  activity level, Monochoria vaginalis: 9
[5]
  activity level, Pontederia korsakowii: 9
[6]
  activity level, Bidens tripartita: 9

## COC(=O)c1nc(-c2ccc(C(F)F)c(OC)c2F)nc(N)c1OC [Compound 4]
[2]
  activity level of plant damage (growth control rate), Veronica: 9
[3]
  activity level, Paddy rice: 0
[4]
  activity level, Monochoria vaginalis: 9
[5]
  activity level, Pontederia korsakowii: 9
[6]
  activity level, Bidens tripartita: 9

## CCOC(=O)c1nc(-c2ccc(C(F)(F)F)c(OC)c2F)nc(N)c1OC [Compound 24]
[7]
  activity level of plant damage (growth control rate), Chinese cabbage: 0
[8]
  activity level of plant damage (growth control rate), Maize: 0
[9]
  activity level of plant damage (growth control rate), Oilseed rape: 0
[10]
  activity level of plant damage (growth control rate), Paddy rice: 0
[11]
  activity level of plant damage (growth control rate), Radish: 0
[12]
  activity level of plant damage (growth control rate), Wheat: 0
[2]
  activity level of plant damage (growth control rate), Veronica: 9
[3]; japonica, paddy rice, 21 days
  activity level, Paddy rice: 0
[4]
  activity level, Monochoria vaginalis: 9
[5]
  activity level, Pontederia korsakowii: 9
[6]
  activity level, Bidens tripartita: 9

## COc1c(N)nc(-c2ccc(C(F)(F)F)c(OC)c2F)nc1C(=O)OCC(F)(F)F [Compound 62]
[7]
  activity level of plant damage (growth control rate), Chinese cabbage: 0
[8]
  activity level of plant damage (growth control rate), Maize: 0
[9]
  activity level of plant damage (growth control rate), Oilseed rape: 0
[10]
  activity level of plant damage (growth control rate), Paddy rice: 0
[11]
  activity level of plant damage (growth control rate), Radish: 0
[12]
  activity level of plant damage (growth control rate), Wheat: 0
[2]
  activity level of plant damage (growth control rate), Veronica: 9
[3]; japonica, paddy rice, 21 days
  activity level, Paddy rice: 0
[4]
  activity level, Monochoria vaginalis: 9
[5]
  activity level, Pontederia korsakowii: 9
[6]
  activity level, Bidens tripartita: 9

## COc1c(N)nc(-c2ccc(C(F)(F)F)c(OC)c2F)nc1C(=O)ON=C(C)C [Compound 106]
[7]
  activity level of plant damage (growth control rate), Chinese cabbage: 0
[8]
  activity level of plant damage (growth control rate), Maize: 0
[9]
  activity level of plant damage (growth control rate), Oilseed rape: 0
[10]
  activity level of plant damage (growth control rate), Paddy rice: 0
[11]
  activity level of plant damage (growth control rate), Radish: 0
[12]
  activity level of plant damage (growth control rate), Wheat: 0
[2]
  activity level of plant damage (growth control rate), Veronica: 9
[3]; japonica, paddy rice, 21 days
  activity level, Paddy rice: 0
[4]
  activity level, Monochoria vaginalis: 9
[5]
  activity level, Pontederia korsakowii: 9
[6]
  activity level, Bidens tripartita: 9

## COc1c(N)nc(-c2ccc(C(F)(F)F)c(OC)c2F)nc1C(=O)OC1CC1 [Compound 116]
[7]
  activity level of plant damage (growth control rate), Chinese cabbage: 0
[8]
  activity level of plant damage (growth control rate), Maize: 0
[9]
  activity level of plant damage (growth control rate), Oilseed rape: 0
[10]
  activity level of plant damage (growth control rate), Paddy rice: 0
[11]
  activity level of plant damage (growth control rate), Radish: 0
[12]
  activity level of plant damage (growth control rate), Wheat: 0
[2]
  activity level of plant damage (growth control rate), Veronica: 9
[3]; japonica, paddy rice, 21 days
  activity level, Paddy rice: 0
[4]
  activity level, Monochoria vaginalis: 9
[5]
  activity level, Pontederia korsakowii: 9
[6]
  activity level, Bidens tripartita: 9

## COc1c(N)nc(-c2ccc(Br)c(OC)c2F)nc1C(=O)SC [Compound 221]
[10]
  activity level of plant damage (growth control rate), Paddy rice: 0
[12]
  activity level of plant damage (growth control rate), Wheat: 0
[2]
  activity level of plant damage (growth control rate), Veronica: 9

## CCC(=O)Nc1ccc(Cl)c(Cl)c1 [Propanil, propanil]
[1]; B 600 g a.i./ha
  Control effect of B applied alone in a corresponding dose (%): 22.1%
[1]; B 1200 g a.i./ha
  Control effect of B applied alone in a corresponding dose (%): 37.4%

— patent US20260198497A1, “A BENZENE RING-SUBSTITUTED PYRIMIDINECARBOXYLIC ACID COMPOUND, PREPARATION METHOD THEREFOR, HERBICIDAL COMPOSITION AND APPLICATION THEREOF” (QINGDAO KINGAGROOT CHEMICAL COMPOUND CO., LTD., priority 2023, published 2026)
